Laboratory results: patent publication US20050014768A1, “Use of 4-oxobutanoic acid derivatives in the treatment of inflammation” (priority 2001, published 2005)

Tested on: carrageenan-induced inflammatory oedema of the rat paw
Assay: Test of carrageenan-induced inflammatory oedema (rat paw, plethysmometry)
Assay type: in vivo, Rat of Wistar type
Conditions: for V oedema: difference in paw volume before and three hours after carrageenan, one hour before carrageenan; for Reduction in oedema: versus controls, three hours after carrageenan
Method: The compounds of the formula (I) were subjected to biological tests designed to reveal their anti-inflammatory activity. The in vivo activity of the compounds of the formula (I) was studied in an experimental model of inflammation in rats. Inflammatory oedema of the rat paw is induced by intradermal injection of carrageenan (1% V/V) into the hind paw of the rat. This oedema is measured by plethysmometry according to the method of Winter C. A. et al. (Proc. Soc. Exp. Biol. Med.; (1962); 111; 544-547). The substances with an anti-inflammatory effect bring about a reduction in the oedema thus created. Indomethacin is used as anti-inflammatory reference in the test.
Animal model: Rat of Wistar type
Anti-inflammatory reference: indomethacin from the company Sigma
Control: 0.5% methylcellulose hydrogel.
After fasting for one day, the volume of the right hind paw is measured [V paw]. The test compounds, the reference and the control are administered orally in a volume of 10 ml/kg. One hour after administration, oedema is induced by an intraplantar injection of 50 microlitres of carrageenan (1%, VN) hydrogel into the right hind paw. The volume of this paw is measured three hours after inducing the oedema. The intensity of the oedema [V oedema] is evaluated by the difference in the volume of the paw, before and three hours after the injection of carrageenan.

## O=C(CC(Cc1ccccc1)C(=O)O)c1ccc(F)cc1 (single isomer, unassigned; (-)) [P, (−)-2-benzyl-4-(4-fluorophenyl)-4-oxobutanoic acid]
Oral 30 mg
  V oedema: 0.42 mL
  Reduction in oedema: −32%
Oral 100 mg
  V oedema: 0.11 mL
  Reduction in oedema: −83%
Oral 300 mg
  V oedema: 0.17 mL
  Reduction in oedema: −73%

## COc1ccc2c(c1)c(CC(=O)O)c(C)n2C(=O)c1ccc(Cl)cc1 [Indomethacin, indomethacin, reference compound]
oral, dose not given
  V oedema: 0.20 mL
  Reduction in oedema: −67%
